Measured values published in patent US12637468B2, “Substituted [1,2,4]triazolo[4,3-b]pyridazines as GABAA receptor modulators” (SHANGHAI SIMR BIOTECHNOLOGY CO., LTD., priority 2019, dated 2026).

target: T1, α5-GABAA receptor (Homo sapiens, UniProt P18507+P31644); test: Cell-level screening: whole cell patch clamp, inverse agonist efficacy on α5-GABAA receptor expressed in HEK293; type: cell-based; settings: drug 100 nM, GABA 0.05 μM, HEK293 expressing α5, β3 and γ2 subunits, clamped at −60 mV; read-out: Compound inverse agonist efficacy %
T1 construct: expressed in transfected cells; host or cells: HEK293, monoclonal stably transfected line
Experimental: The inventors used electrophysiological methods to determine the inverse agonist efficacy of the drugs to be tested on the α5-GABAA receptor. The detailed methods are as follows:
Different subunits of GABAA receptors were expressed in human […] cell line 293 (HEK293) cell line. The cells were cultured in a culture medium and used as a cell model for screening pain inhibiting drugs. The α, β and γ subunits are necessary to form complete functional GABAA receptors. In this embodiment, the inventors had established the following cell model: α5 subunit (see GenBank Accession No. NM_000810.3 for protein sequences), β3 subunit (see GenBank Accession No. NM_000814.5 for protein sequences) and γ2 subunit (see GenBank Accession No. NM_000816.3 for protein sequences) were expressed in HEK293 cell line at the same time, followed by screening the monoclonal cell line. This cell line contained α5-GABAA receptor and had complete GABAA receptor function.
The monoclonal stably transfected HEK-293 cells expressing α5-GABAA receptor were cultured in 10 cm culture dishes and passaged when the cells grew to 80%-90%. During passaging, the culture medium was aspirated first, then 3 mL of DPBS phosphate buffer salt (Gibco™) was added to the culture dishes, and the culture dishes were shaken slightly, and DPBS was aspirated. 1 mL of trypsin (TrypLE Express, Gibco™) was added thereto, and the cells were digested at 37° C. for 1-2 minutes. Then 3 mL of complete medium (DMEM+10% FBS (Gibco™)) was added and the cells at the bottom of the culture dishes were dispersed. The cell suspension were transferred to a 15 mL centrifugal tube (Corning) and then centrifuged at 200 g for 3 minutes. The supernatant was discarded, 4 mL of complete medium was added, and the cells were gently blown and resuspended for use. If cell passaging was performed, the cell suspension was diluted at a ratio of 1:5 or 1:10. If cells for electrophysiology use were prepared, the cell suspension was diluted in a ratio of 1:12, then added into a 24-well dish (Corning™) in which glass slides were placed and pretreated with Poly-D-Lysine, and the cells were tested after being attached to the walls. The culture time of cells for electrophysiology use was no more than 48 hours.
Drug concentration setting: the final drug concentration used in drug screening was 100 nM, and the GABA concentration range was 0.05 μM. The final drug concentrations used in the dose-inversal agonistic efficiency (%) test were 0.3 nM, 3 nM, 10 nM, 30 nM, 100 nM and 300 nM. The whole cell patch clamp technique was used in electrophysiological experiments, which could refer to the literature (I. Lecker, Y. Yin, D. S. Wang and B. A. Orser, (2013) Potentiation of GABAA receptor activity by volatile anaesthetics is reduced by α5-GABAA receptor-preferring inverse agonists, British Journal of Anaesthesia 110 (S1): i73-i81). The components of extracellular solution (ECS) for electrophysiology use were as follows: 150 mM NaCl, 5 mM KCl, 2.5 mM CaCl2), 1 mM MgCl2, 10 mM HEPES and 10 mM glucose (pH 7.4); electrode internal solutions for electrophysiology use were as follows: 140 mM CsCl, 11 mM EGTA, 10 mM HEPES, 2 mM CaCl2), 1 mM MgCl2, 4 mM MgATP, 2 mM TEA (pH 7.3). The signal acquisition used an EPC-10 amplifier and the PatchMaster software (HEKA). The recording electrode was drawn using borosilicate glass, and the electrode resistance was 4 to 6 MΩ. The ALA-VC3-8PP™ system was used for extracellular administration. Separate cells that grew independently was selected for recording. During recording, the cell membrane potential was clamped at −60 mV. During experiment, an extracellular solution was applied to the cells for about 20 seconds. When the baseline reached to a stable state, the extracellular solution was switched to GABA. Then the current induced by GABA could be detected. […]

T1 sequence (P31644 32-462): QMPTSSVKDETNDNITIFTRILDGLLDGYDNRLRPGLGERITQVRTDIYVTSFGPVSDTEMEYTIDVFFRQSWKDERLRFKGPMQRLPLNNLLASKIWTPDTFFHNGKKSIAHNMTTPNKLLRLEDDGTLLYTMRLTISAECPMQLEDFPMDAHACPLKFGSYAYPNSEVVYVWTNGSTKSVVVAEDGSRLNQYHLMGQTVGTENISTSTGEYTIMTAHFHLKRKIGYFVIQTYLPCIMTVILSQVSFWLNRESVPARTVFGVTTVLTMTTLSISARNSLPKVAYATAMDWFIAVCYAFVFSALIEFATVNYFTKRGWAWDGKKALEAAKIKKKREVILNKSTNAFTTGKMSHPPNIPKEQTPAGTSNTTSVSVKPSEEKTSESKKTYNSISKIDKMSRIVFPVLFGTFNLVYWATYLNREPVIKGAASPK
T1 sequence (P28472 26-473 partner): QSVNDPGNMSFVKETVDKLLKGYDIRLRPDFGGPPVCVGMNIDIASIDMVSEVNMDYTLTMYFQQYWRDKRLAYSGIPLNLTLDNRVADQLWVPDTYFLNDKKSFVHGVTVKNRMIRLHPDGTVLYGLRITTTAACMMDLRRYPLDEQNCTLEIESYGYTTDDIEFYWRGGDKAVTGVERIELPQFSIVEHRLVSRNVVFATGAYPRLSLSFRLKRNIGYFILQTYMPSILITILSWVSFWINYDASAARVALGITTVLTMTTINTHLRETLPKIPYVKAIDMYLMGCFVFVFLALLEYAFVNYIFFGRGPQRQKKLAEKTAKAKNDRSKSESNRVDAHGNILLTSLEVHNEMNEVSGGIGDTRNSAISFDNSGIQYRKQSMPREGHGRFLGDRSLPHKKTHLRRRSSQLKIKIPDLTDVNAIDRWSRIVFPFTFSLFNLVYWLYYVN
T1 sequence (P18507 40-467 isoform P18507-1 limits assumed): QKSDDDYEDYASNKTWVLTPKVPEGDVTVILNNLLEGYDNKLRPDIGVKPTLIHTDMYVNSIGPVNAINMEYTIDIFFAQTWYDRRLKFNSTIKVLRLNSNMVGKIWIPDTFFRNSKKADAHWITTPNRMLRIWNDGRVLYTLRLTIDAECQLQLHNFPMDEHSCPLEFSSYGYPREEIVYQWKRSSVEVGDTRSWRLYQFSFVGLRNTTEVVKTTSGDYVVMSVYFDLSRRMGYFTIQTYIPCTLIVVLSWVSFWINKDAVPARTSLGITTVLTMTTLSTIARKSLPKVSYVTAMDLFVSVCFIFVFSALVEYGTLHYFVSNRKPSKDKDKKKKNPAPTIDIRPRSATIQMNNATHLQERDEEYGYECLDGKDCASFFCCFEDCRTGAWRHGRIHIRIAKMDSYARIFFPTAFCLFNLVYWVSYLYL

Point of comparison: `CCn1cnc2ccc(COc3nn4c(-c5cc(C)on5)nnc4cc3OC)nc21` [Embodiment 249], inhibition at 0.1 µM 51.2%. Against it:
- COc1cc2nnc(-c3cc(C)on3)n2nc1OCc1ccc2ccn(C3CCOCC3)c2n1 [Embodiment 252] — lower, 42.2%
- COc1cc2nnc(-c3cc(C)on3)n2nc1OCc1ccc2c(ncn2C2CCOCC2)n1 [Embodiment 248] — lower, 31.4%
- COc1cc2nnc(-c3cc(C)on3)n2nc1OCc1ccc2c(n1)CCN(C(=O)c1ccccc1)C2 [Embodiment 131] — higher, 52.2%
- COc1cc2nnc(-c3cc(C)on3)n2nc1OCc1ccc(OC2COC2)cn1 [Embodiment 175] — lower, 36%
- COc1cc2nnc(-c3cc(C)on3)n2nc1OCc1cccc2ccnn12 [Embodiment 117] — lower, 32.3%
- COc1cc2nnc(-c3cc(C)on3)n2nc1OCc1ccc2c(ccn2C)n1 [Embodiment 97] — lower, 32.6%
- COc1cc2nnc(-c3cc(C)on3)n2nc1OCc1ccc(OC(C)C)cn1 [Embodiment 25] — lower, 34.1%
- COc1cc2nnc(-c3cc(C)on3)n2nc1OCc1ccccc1C#N [Embodiment 5] — lower, 31.5%
- CCOc1cccc(COc2nn3c(-c4cc(C)on4)nnc3cc2OC)n1 [Embodiment 22] — lower, 22.1%
- COc1cc2nnc(-c3cc(C)on3)n2nc1OCc1cccc2cnnn12 [Embodiment 104] — lower, 48.2%
- CCNC(=O)c1ccc(COc2nn3c(-c4cc(C)on4)nnc3cc2OC)nc1 [Embodiment 35] — lower, 39.3%
- COc1cc2nnc(-c3cc(C)on3)n2nc1OCc1ccc2c(n1)CN(C1CCOC1)C2 (stereo not drawn) [Embodiment 254] — lower, 39%
- COc1cc2nnc(-c3cc(C)on3)n2nc1OCc1ccc(OCCCC#N)cn1 [Embodiment 8] — higher, 57.8%
- CCn1nc(C)c2nc(COc3nn4c(-c5cc(C)on5)nnc4cc3OC)ccc21 [Embodiment 243] — lower, 50.5%
- COc1cc2nnc(-c3cc(C)on3)n2nc1OCc1cccn(C)c1=O [Embodiment 74] — lower, 40.4%
- COc1cc2nnc(-c3cc(C)on3)n2nc1OCc1ccc(OC(F)(F)F)cn1 [Embodiment 61] — lower, 45.8%
- COc1cc2nnc(-c3cc(C)on3)n2nc1OCc1ccc2c(n1)CCN(C1CN(C(C)=O)C1)C2 [Embodiment 199, 1-(3-(2-(((7-Methoxy-3-(5-methylisoxazol-3-yl)-[1,2,4]triazolo[4,3-b]pyridazin-6-yl)oxy)methyl)-7,8-dihydro-1,6-naphthyridin-6(5H)-yl)azetidin-1-yl)ethan-1-one] — higher, 56.8%
- CCn1nc2ccc(COc3nn4c(-c5cc(C)on5)nnc4cc3OC)nc2c1C [Embodiment 244] — higher, 75.1%
- COc1cc2nnc(-c3cc(C)on3)n2nc1OCc1ccc(OCCN2CCC2)cn1 [Embodiment 133] — lower, 36.9%
- COc1cc2nnc(-c3cc(C)on3)n2nc1OCc1ccc2c(=O)n(C3COC3)ccc2n1 [Embodiment 144] — lower, 42%
- COc1cc2nnc(-c3cc(C)on3)n2nc1OCc1cccc(C2CCNC2)n1 (stereo not drawn) [Embodiment 123] — lower, 36.7%
- COc1cc2nnc(-c3cc(C)on3)n2nc1OCc1ccc2c(cnn2C2COC2)n1 [Embodiment 227] — higher, 61.5%
- COc1cc2nnc(-c3cc(C)on3)n2nc1OCc1cccc(F)n1 [Embodiment 4] — lower, 40.8%
- COc1cc2nnc(-c3cc(C)on3)n2nc1OCc1ccc2nc(C3CCOCC3)cn2n1 [Embodiment 212] — higher, 72.6%
- COc1cc2nnc(-c3cc(C)on3)n2nc1OCc1ccc2c(cnn2Cc2cc(C)on2)n1 [Embodiment 224] — lower, 46.7%
- COc1cc2nnc(-c3cc(C)on3)n2nc1OCc1ccc2c(cnn2CCC#N)n1 [Embodiment 228] — lower, 44.7%
- CCOc1ccc(COc2nn3c(-c4cc(C)on4)nnc3cc2OC)nc1 [Embodiment 23] — lower, 41.2%
- COc1cc2nnc(-c3cc(CO)on3)n2nc1OCc1ccccn1 [Embodiment 46, (3-(7-Methoxy-6-(pyridin-2-ylmethoxy)-[1,2,4]triazolo[4,3-b]pyridazin-3-yl]isoxazol-5-yl)methanol] — lower, 48.7%
- COCCCOc1ccc(COc2nn3c(-c4cc(C)on4)nnc3cc2OC)nn1 [Embodiment 15] — lower, 45.8%
- COc1cc2nnc(-c3cc(C)on3)n2nc1OCc1ccc(Cl)cn1 [Embodiment 20] — lower, 42.9%
- COc1cc2nnc(-c3cc(C)on3)n2nc1OCc1ccc(C)cn1 [Embodiment 42] — lower, 44.9%
- COc1cc2nnc(-c3cc(C)on3)n2nc1OCc1ccc2c(cnn2CCc2ccccc2)n1 [Embodiment 229, 3-(7-Methoxy-6-(((1-phenethyl-1H-pyrazolo[4,3-b]pyridin-5-yl]methoxy])-[1,2,4]triazolo[4,3-b]pyridazin-3-yl)-5-methylisoxazole] — lower, 30.8%
- COc1cc2nnc(-c3cc(C)on3)n2nc1OCc1ccc2c(n1)CCN(C(=O)NC1CC(F)(F)C1)C2 [Embodiment 201, N-(3,3-Difluorocyclobutyl)-2-(((7-methoxy-3-(5-methylisoxazol-3-yl)-[1,2,4]triazolo[4,3-b]pyridazin-6-yl)oxy)methyl)-7,8-dihydro-1,6-naphthyridine-6(5H)-carboxamide] — lower, 48.3%
- CCOC(=O)N1CCc2nc(COc3nn4c(-c5cc(C)on5)nnc4cc3OC)ccc2C1 [Embodiment 111, Ethyl 2-(((7-methoxy-3-(5-methylisoxazol-3-yl)-[1,2,4]triazolo[4,3-b]pyridazin-6-yl)oxy)methyl)7,8-dihydro-1,6-naphthyridine-6(5H)-carboxylate] — higher, 59.6%
- COCc1cc(-c2nnc3cc(OC)c(OCc4ccc(OC)cn4)nn23)no1 [Embodiment 48, 3-(7-Methoxy-6-((5-methoxypyridin-2-yl)methoxy)-[1,2,4]triazolo[4,3-b]pyridazine-3-yl)-5-(methoxymethyl)isoxazole] — lower, 34.7%
- COc1cc2nnc(-c3cc(C)on3)n2nc1OCc1cccc(C2(F)CCNC2)n1 (stereo not drawn) [Embodiment 125] — lower, 41.8%
- COCCn1ccc2nc(COc3nn4c(-c5cc(C)on5)nnc4cc3OC)ccc2c1=O [Embodiment 147] — lower, 39.8%
- CCOc1nccc2nc(COc3nn4c(-c5cc(C)on5)nnc4cc3OC)ccc12 [Embodiment 145] — higher, 51.3%
- COc1cc2nnc(-c3cc(C)on3)n2nc1OCc1ccc2c(n1)CCN(S(=O)(=O)N(C)C)C2 [Embodiment 205, 2-(((7-Methoxy-3-(5-methylisoxazol-3-yl)-[1,2,4]triazolo[4,3-b]pyridazin-6-yl)oxy)methyl)-N,N-dimethyl-7,8-dihydro-1,6-naphthyridine-6(5H)-sulfonamide] — higher, 52.5%
- COc1cc2nnc(-c3cc(C)on3)n2nc1OCc1ccc(-c2nc(C)no2)cn1 [Embodiment 137, 5-(6-(((7-Methoxy-3-(5-methylisoxazol-3-yl)-[1,2,4]triazolo[4,3-b]pyridazin-6-yl)oxy)methyl)pyridin-3-yl)-3-methyl-1,2,4-oxadiazole] — lower, 47.2%
- CCN1CC(Oc2ccc(COc3nn4c(-c5cc(C)on5)nnc4cc3OC)nc2)C1 [Embodiment 134] — lower, 30.4%
- COc1cc2nnc(-c3cc(C)on3)n2nc1OCc1ccc(F)cn1 [Embodiment 58] — lower, 38.5%
- COc1cnc(COc2nn3c(-c4cc(C)on4)nnc3cc2OC)cc1OC [Embodiment 60] — lower, 45.8%
- COc1cc2nnc(-c3cc(C)on3)n2nc1OCc1ccc2c(cnn2C2CCOCC2)n1 [Embodiment 239] — lower, 48%
